The text below walks through data of patent publication US20090270469A1, “SUBSTITUTED OXAZOLIDINONES” (AUSPEX PHARMACEUTICALS, INC., priority 2008, published 2009).

The test system of one series is human liver microsomes. The experiment in a line: In vitro human liver microsomal (HLM) stability assay. It counts as in vitro ADME. The settings on record: human liver microsomes 1 mg/mL, 1 μM compound, 37° C., vs non-isotopically enriched drug. Here is the method: Liver microsomal stability assays were conducted at 1 mg per mL liver microsome protein with an NADPH-generating system in 2% NaHCO3 (2.2 mM NADPH, 25.6 mM glucose 6-phosphate, 6 units per mL glucose 6-phosphate dehydrogenase and 3.3 mM MgCl2). Test compounds were prepared as solutions in 20% acetonitrile-water. These solutions were added to the assay mixture (final assay concentration 1 μM) and incubated at 37° C. Final concentration of acetonitrile in the assay should be <1%. Aliquots (50 μL) were collected at the these timpoints: […], and 1 hours, and diluted with ice cold acetonitrile (200 μL) to stop the reactions. Samples were centrifuged at 12,000 RPM for 10 minutes to precipitate proteins. Supernatants were transferred to micro centrifuge tubes and stored for LC/MS/MS analysis of the degradation half-life of the test compounds.
Results of in vitro Human Liver Microsomal (HLM) Stability Assay

The conditions of series [1]: 400 mg oral dose under fasted conditions; cited from earlier work.

`[2H]C1([2H])NC(=O)OC1([2H])C([2H])([2H])Oc1cc(C)cc(C)c1` (centres unmarked) [Example 5, 5-[(3,5-Dimethylphenoxy)methyl-d2]oxazolidin-4,4,5-d3-2-one]: the “% increase of HLM degradation half-life, bin 0%-50%” value (from here on “% increase … bin 0%-50%”) in the series on human liver microsomes is “+ (0%-50%)”.
On to `[2H]C([2H])([2H])c1cc(OCC2CNC(=O)O2)cc(C([2H])([2H])[2H])c1` (centres unmarked) [Example 2, 5-[(3,5-dimethyl-d6-phenoxy)methyl]oxazolidin-2-one], for which the “% increase … bin 0%-50%” value in the series on human liver microsomes was “+ (0%-50%)”.
For the compound `[2H]C([2H])(Oc1cc(C)cc(C)c1)C1CNC(=O)O1` (centres unmarked) [Example 3, 5-[(3,5-dimethyl-phenoxy)methyl-d2]oxazolidin-2-one], the “% increase … bin 0%-50%” value in the series on human liver microsomes is “+ (0%-50%)”.
For `[2H]C([2H])([2H])c1cc(OC([2H])([2H])C2CNC(=O)O2)cc(C([2H])([2H])[2H])c1` (centres unmarked) [Example 4, 5-[(3,5-Dimethyl-d6-phenoxy)methyl-d2]oxazolidin-2-one], in the series with human liver microsomes, the “% increase … bin 0%-50%” value is given as “+ (0%-50%)”.
`[2H]C([2H])([2H])c1cc(OC([2H])([2H])C2([2H])OC(=O)NC2([2H])[2H])cc(C([2H])([2H])[2H])c1` (centres unmarked) [Example 6, 5-[(3,5-Dimethyl-d6-phenoxy)methyl-d2]oxazolidin-4,4,5-d3-2-one]: the “% increase … bin 0%-50%” value in the series on human liver microsomes is on record as “+ (0%-50%)”.
In the case of `Cc1cc(C)cc(OCC2CNC(=O)O2)c1` (centres unmarked) [Example 1, 5-[(3,5-dimethylphenoxy)methyl]oxazolidin-2-one], in series [1], the terminal half-life was 9.0 ± 4.8 h and the “time of peak plasma concentrations” value is reported as “approximately 3 hours”. Besides, the “% increase of HLM degradation half-life, bin −25%-0%” value in the series on human liver microsomes was “+ (−25%-0%)”.
